The target in assay [1] is T1, Alpha 1,4 galactosyltransferase (Neisseria meningitidis) (UniProt Q8KHJ3).
T1 sequence (whole entry): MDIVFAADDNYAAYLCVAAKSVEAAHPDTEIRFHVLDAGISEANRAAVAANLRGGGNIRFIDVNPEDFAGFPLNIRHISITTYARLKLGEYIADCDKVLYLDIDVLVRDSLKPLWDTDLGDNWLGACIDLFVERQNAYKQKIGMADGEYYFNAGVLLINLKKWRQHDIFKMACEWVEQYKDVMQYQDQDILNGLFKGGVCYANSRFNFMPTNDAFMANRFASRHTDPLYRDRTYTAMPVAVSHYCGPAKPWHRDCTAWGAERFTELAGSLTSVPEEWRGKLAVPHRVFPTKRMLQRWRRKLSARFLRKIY
The assay can be described thus: Inhibition of Neisseria meningitidis alpha-1,4-galactosyltransferase LgtC at 50% donor UDP-Gal turn over rates by inorganic phosphate release from UDP and malachite green dye based inorganic phosphate detection based assay.

Assay [2] has as its target T2, Beta-1,4-galactosyltransferase 1 (Bos taurus) (UniProt P08037).
T2 sequence (whole entry): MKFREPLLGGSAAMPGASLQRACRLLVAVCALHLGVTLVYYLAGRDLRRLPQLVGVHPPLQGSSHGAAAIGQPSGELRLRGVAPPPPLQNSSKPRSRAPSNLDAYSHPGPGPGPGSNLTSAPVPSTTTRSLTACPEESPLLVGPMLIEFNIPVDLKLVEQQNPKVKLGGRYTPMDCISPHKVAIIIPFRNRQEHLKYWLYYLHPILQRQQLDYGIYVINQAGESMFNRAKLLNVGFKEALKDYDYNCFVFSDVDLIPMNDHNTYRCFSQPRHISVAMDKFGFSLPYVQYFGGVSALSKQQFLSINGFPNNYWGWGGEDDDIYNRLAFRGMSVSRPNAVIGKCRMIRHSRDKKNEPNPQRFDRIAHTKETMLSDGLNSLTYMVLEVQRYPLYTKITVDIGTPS
The assay can be described thus: Inhibition of bovine beta-1,4-GalT […] at 10% to 50 donor UDP-Gal turn over rates by inorganic phosphate release from UDP and malachite green dye based inorganic phosphate detection based assay.

The target of assay [3] is T1, Alpha 1,4 galactosyltransferase (Neisseria meningitidis). The assay can be described thus: Inhibition of Neisseria meningitidis alpha-1,4-galactosyltransferase LgtC at 90% donor UDP-Gal turn over rates by inorganic phosphate release from UDP and malachite green dye based inorganic phosphate detection based assay.
Assay [4] shares this target. The assay can be described thus: Inhibition of Neisseria meningitidis alpha-1,4-galactosyltransferase LgtC at 20% donor UDP-Gal turn over rates by inorganic phosphate release from UDP and malachite green dye based inorganic phosphate detection based assay.
In assay [5] the target is Intestinal-type alkaline phosphatase (Bos taurus) (UniProt P19111). Nature of the assay: Activity of calf intestinal phosphatase assessed as compound turn over rates by inorganic phosphate release and malachite green dye based inorganic phosphate detection based assay.
Assay [6] addresses T3, Alpha 1,4 galactosyltransferase (Neisseria meningitidis, UniProt Q8KHJ3).
T3 sequence (Q8KHJ3 whole entry): T1 sequence (whole entry)
The assay can be described thus: Inhibition of Neisseria meningitidis alpha-1,4-galactosyltransferase LgtC by inorganic phosphate release from UDP and malachite green dye based inorganic phosphate detection based assay.

Assay [7] deals with T1, Alpha 1,4 galactosyltransferase (Neisseria meningitidis). The assay can be described thus: Activity of Neisseria meningitidis alpha-1,4-galactosyltransferase LgtC assessed as compound turn over rates at 50 to 100 uM incubated for 20 mins by inorganic phosphate release and malachite green dye based inorganic phosphate detection based assay.
Assay [8] deals with T4, Beta-1,4-galactosyltransferase 1 (Bos taurus, UniProt P08037).
T4 sequence (P08037 whole entry): T2 sequence (whole entry)
Nature of the assay: Inhibition of bovine beta-1,4-GalT […] at 29% donor UDP-Gal turn over rates by inorganic phosphate release from UDP and malachite green dye based inorganic phosphate detection based assay.

Molecules are shown by their SMILES. Calls of active or inactive are those of the source. The calls are words filed in the database; no cut-off is given here.

Chain of Intestinal-type alkaline phosphatase (Bos taurus) (P19111 20-506 limits assumed): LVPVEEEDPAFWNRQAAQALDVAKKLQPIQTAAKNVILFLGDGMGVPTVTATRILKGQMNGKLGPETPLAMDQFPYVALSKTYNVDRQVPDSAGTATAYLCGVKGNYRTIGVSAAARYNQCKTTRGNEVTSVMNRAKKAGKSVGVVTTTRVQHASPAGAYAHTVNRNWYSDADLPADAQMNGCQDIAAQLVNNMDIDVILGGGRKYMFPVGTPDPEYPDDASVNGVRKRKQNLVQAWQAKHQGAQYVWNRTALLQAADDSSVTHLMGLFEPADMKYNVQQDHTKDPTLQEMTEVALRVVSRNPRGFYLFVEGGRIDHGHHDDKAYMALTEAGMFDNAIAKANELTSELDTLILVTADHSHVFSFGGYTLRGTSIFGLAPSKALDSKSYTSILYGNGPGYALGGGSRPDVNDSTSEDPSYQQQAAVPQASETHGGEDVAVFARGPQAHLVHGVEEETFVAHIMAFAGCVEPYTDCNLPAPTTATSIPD

As to `O=c1ccn([C@@H]2O[C@H](CO)[C@@H](O)[C@H]2O)c(=O)[nH]1`, the inhibition entry in assay [1], in assay [2], in assay [3] and in assay [4] was “inactive” each time.
Consider `O=Cc1ccc(-c2cn([C@@H]3O[C@H](COP(=O)(O)OP(=O)(O)O[C@H]4O[C@H](CO)[C@H](O)[C@H](O)[C@H]4O)[C@@H](O)[C@H]3O)c(=O)[nH]c2=O)s1`, for which the result in assay [5] was Active. Further, the IC50 came to 0.9 µM in assay [6] and 9 µM in assay [8]. In assay [7], the result was inactive.
Take `O=c1ccn([C@@H]2O[C@H](COP(=O)(O)OP(=O)(O)O)[C@@H](O)[C@H]2O)c(=O)[nH]1`: the result in assay [5] was Active.
